From ChEMBL document CHEMBL1136898, “Conformational analysis of N,N-disubstituted-1,4-diazepane orexin receptor antagonists and implications for receptor binding” (Bioorg Med Chem Lett, 2009)

How the values were obtained:
Orexin receptor type 2 = target: T1, Orexin receptor type 2 (Homo sapiens, UniProt O43614); assay: Binding affinity to OX2 receptor
T1 sequence (O43614 whole entry): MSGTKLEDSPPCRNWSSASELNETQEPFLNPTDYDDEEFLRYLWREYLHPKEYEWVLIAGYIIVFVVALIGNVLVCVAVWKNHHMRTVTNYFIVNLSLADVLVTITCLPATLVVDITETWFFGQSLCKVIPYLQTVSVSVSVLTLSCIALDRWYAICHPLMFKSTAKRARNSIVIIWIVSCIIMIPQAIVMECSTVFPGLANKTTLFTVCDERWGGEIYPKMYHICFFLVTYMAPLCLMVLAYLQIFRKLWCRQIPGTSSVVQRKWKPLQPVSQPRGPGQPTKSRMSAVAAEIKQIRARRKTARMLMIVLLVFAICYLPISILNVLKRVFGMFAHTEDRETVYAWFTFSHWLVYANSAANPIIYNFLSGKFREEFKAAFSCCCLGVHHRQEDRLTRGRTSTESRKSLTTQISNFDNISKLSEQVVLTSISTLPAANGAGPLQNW

[1] = target: T2, Orexin/Hypocretin receptor type 1 (Homo sapiens, UniProt O43613); assay: Binding affinity to OX1 receptor
T2 sequence (O43613 whole entry): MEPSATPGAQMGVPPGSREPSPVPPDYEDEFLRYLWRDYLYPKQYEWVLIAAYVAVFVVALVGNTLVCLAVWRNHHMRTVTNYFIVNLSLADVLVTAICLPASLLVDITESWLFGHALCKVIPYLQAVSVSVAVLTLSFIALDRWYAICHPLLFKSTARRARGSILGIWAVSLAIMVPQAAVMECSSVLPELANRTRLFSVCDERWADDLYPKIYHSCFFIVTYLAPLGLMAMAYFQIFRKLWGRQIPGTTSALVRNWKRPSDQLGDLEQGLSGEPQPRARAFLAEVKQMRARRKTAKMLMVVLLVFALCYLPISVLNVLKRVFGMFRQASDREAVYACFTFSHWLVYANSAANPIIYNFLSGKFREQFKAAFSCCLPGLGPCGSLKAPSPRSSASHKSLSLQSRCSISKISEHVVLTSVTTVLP

Ki (Orexin receptor type 2)	Ki [1]	Structure (SMILES)
0.24 µM	0.93 µM	Cc1ccc(-n2nccn2)c(CN2CCCN(c3ncc4ccccc4n3)CC2)c1
0.002 µM	0.002 µM	Cc1ccc(-n2nccn2)c(C(=O)N2CCCN(c3ccc4ccccc4c3)CC2)c1
0.55 µM	9.8 µM	O=C(C1CCCCC1)N1CCCN(c2ncc3ccccc3n2)CC1
0.042 µM	0.051 µM	O=C1c2cc(ccc2-n2nccn2)CCCCCCc2ccc3cc(ccc3c2)N2CCCN1CC2
